# Columns and labels:
# [1] = test system: Human Peripheral Blood Mononuclear Cells (PBMC) or Enriched Adherent Mononuclear Cells; assay: Cell assay: IL-1β assay with human PBMC or enriched adherent mononuclear cells; assay type: cell-based; conditions: LPS-stimulated cells, mature IL-1β in supernatant by ELISA
# Text: IL-1β Assay with a Mixed Population of Human Peripheral Blood Mononuclear Cells (PBMC) or Enriched Adherent Mononuclear Cells
# Processing of pre-IL-1S by ICE can be measured in cell culture using a variety of cell sources. Human PBMC obtained from healthy donors provides a mixed population of lymphocyte subtypes and mononuclear cells that produce a spectrum of interleukins and cytokines in response to many classes of physiological stimulators. Adherent mononuclear cells from PBMC provides an enriched source of normal monocytes for selective studies of cytokine production by activated cells.
# An initial dilution series of test compound in DMSO or ethanol is prepared, with a subsequent dilution into RPMI-10% FBS media (containing 2 mM L-glutamine, 10 mM HEPES, 50 U and 50 ug/ml pen/strep) respectively to yield drugs at 4× the final test concentration containing 0.4% DMSO or 0.4% ethanol. The final concentration of DMSO is 0.1% for all drug dilutions. A concentration titration which brackets the apparent Ki for a test compound determined in an ICE inhibition assay is generally used for the primary compound screen.
# We generally test 5-6 compound dilutions and have performed the cellular component of the assay in duplicate, with duplicate ELISA determinations on each cell culture supernatant.
# Buffy coat cells isolated from one pint human blood (yielding 40-45 ml final volume plasma plus cells) are diluted with media to 80 ml and LeukoPREP separation tubes (Becton Dickinson) are each overlaid with 10 ml of cell suspension. After 15 min centrifugation at 1500-1800×g, the plasma/media layer is aspirated and then the mononuclear cell layer is collected with a Pasteur pipette and transferred to a 15 ml conical centrifuge tube (Corning). Media is added to bring the volume to 15 ml, gently mix the cells by inversion and centrifuge at 300×g for 15 min. Resuspend the PBMC pellet in a small volume of media, count cells and adjust to 6×10^6 cells/ml.
# For the cellular assay, add 1.0 ml of the cell suspension to each well of a 24-well flat bottom tissue culture plate (Corning), 0.5 ml test compound dilution and 0.5 ml LPS solution (Sigma #L-3012; 20 ng/ml solution prepared in complete RPMI media; final LPS concentration 5 ng/ml). The 0.5 ml additions of test compound and LPS are usually sufficient to mix the contents of the wells. Three control mixtures are run per experiment, with either LPS alone, solvent vehicle control, and/or additional media to adjust the final culture volume to 2.0 ml. The cell cultures are incubated for 16-18 hr at 37° C. in the presence of 5% CO2.
# At the end of the incubation period, cells are harvested and transferred to 15 ml conical centrifuge tubes. After centrifugation for 10 min at 200×g, supernatants are harvested and transferred to 1.5 ml Eppendorf tubes. It may be noted that the cell pellet may be utilized for a biochemical evaluation of pre-IL-1S and/or mature IL-1β content in cytosol extracts by western blotting or ELISA with pre-IL-1β specific antisera.
# PBMC are isolated and prepared as described above. Media (1.0 ml) is first added to wells followed by 0.5 ml of the PBMC suspension. After a one hour incubation, plates are gently shaken and nonadherent cells aspirated from each well. Wells are then gently washed three times with 1.0 ml of media and final resuspended in 1.0 ml media. The enrichment for adherent cells generally yields 2.5−3.0×10^5 cells per well. The addition of test compounds, LPS, cell incubation conditions and processing of supernatants proceeds as described above.
# We have used Quantikine kits (R&D Systems) for measurement of mature IL-1β. Assays are performed according to the manufacturer's directions. Mature IL-1β levels of about 1-3 ng/ml in both PBMC and adherent mononuclear cell positive controls are observed. ELISA assays are performed on 1:5, 1:10 and 1:20 dilutions of supernatants from LPS-positive controls to select the optimal dilution for supernatants in the test panel.
# ICE = target: T1, ICE (Homo sapiens, UniProt P29466); assay: Enzyme assay with UV-visible substrate (Succinyl-Tyr-Val-Ala-Asp-pNitroanilide); assay type: biochemical
# T1 sequence (P29466 120-297 limits assumed): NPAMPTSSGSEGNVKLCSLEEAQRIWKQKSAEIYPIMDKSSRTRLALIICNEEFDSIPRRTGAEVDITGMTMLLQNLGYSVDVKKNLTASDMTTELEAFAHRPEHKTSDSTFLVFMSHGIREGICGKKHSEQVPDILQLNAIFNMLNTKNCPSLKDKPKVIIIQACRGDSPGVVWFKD
# T1 sequence (P29466 317-404 limits assumed): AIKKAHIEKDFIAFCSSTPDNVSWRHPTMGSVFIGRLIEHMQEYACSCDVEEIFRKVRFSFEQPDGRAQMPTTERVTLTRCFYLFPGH
# Experimental: 1. Enzyme Assay with UV-Visible Substrate
# This assay is run using an Succinyl-Tyr-Val-Ala-Asp-pNitroanilide substrate. Synthesis of analogous substrates is described by L. A. Reiter (Int. J. Peptide Protein Res. 43, 87-96 (1994)). The assay mixture contains:
# The visible ICE assay is run in a 96-well microtiter plate. Buffer, ICE and DMSO (if inhibitor is present) are added to the wells in the order listed. The components are left to incubate at room temperature for 15 minutes starting at the time that all components are present in all wells. The microtiter plate reader is set to incubate at 37° C. After the 15 minute incubation, substrate is added directly to the wells and the reaction is monitored by following the release of the chromophore (pNA) at 405-603 nm at 37° C. for 20 minutes. A linear fit of the data is performed and the rate is calculated in mOD/min. DMSO is only present during experiments involving inhibitors, buffer is used to make up the volume to 100 μl in the other experiments.
# For determination of enzyme inhibition constants (Ki) or the mode of inhibition (competitive, uncompetitive or noncompetitive), the rate data determined in the enzyme assays at varying inhibitor concentrations are computer-fit to standard enzyme kinetic equations (see I. H. Segel, Enzyme Kinetics, Wiley-Interscience, 1975).
# [2] = Homo sapiens, PBMC, Example 6 table
SMILES,Ki (ICE; Example 4 table) [nM],Ki (ICE; Example 6 table) [nM],"IC50 ([1]; Homo sapiens, PBMC, Example 4 table) [nM]","IC50 [1, 2] [nM]",IC50 ([1]; Example 6 table) [nM]
"O=C(O)C[C@H](NC(=O)Cn1c(Cc2ccccc2)ccc(NC(=O)CCc2ccccc2)c1=O)C(=O)COCc1ccccc1Cl [Compound 90, N-2-(6-Benzyl-1,2-dihydro-2-oxo-3-(3-phenylpropionyl)amino-1-pyridyl)acetyl-3-amino-5-(2-chlorobenzyloxy)-4-oxo-pentanoic acid]",–,420,–,6200,–
O=C(O)C[C@H](NC(=O)Cn1c(Cc2ccccc2)ccc(NC(=O)CCc2ccccc2)c1=O)C(=O)c1ncc(-c2c(Cl)cccc2Cl)s1 [Compound 91],–,260,–,> 25000,–
"O=C[C@H](CC(=O)O)NC(=O)[C@@H]1CCc2ncc(NC(=O)CCc3ccccc3)c(=O)n21 [Compound 98, 4-Oxo-(3S)-{[4-oxo-3-(3-phenyl-propionylamino)-4,6,7,8-tetrahydro-pyrrolo[1,2-a]pyrimidine-(6S)-carbonyl]-amino}-butyric acid]",–,535,–,4000,–
O=C[C@H](CC(=O)O)NC(=O)CN1C(=O)[C@@H](NC(=O)CCc2ccccc2)CNc2ccccc21 [Compound 106a],–,2300,–,30000,–
"O=C[C@H](CC(=O)O)NC(=O)CN1C(=O)[C@@H](NC(=O)CCc2ccccc2)CN(Cc2ccccc2)c2ccccc21 [Compound 106c, 3(S)-{2-[5-Benzyl-2-oxo-3-(3(S)-phenylpropionylamino)-2,3,4,5-tetrahydrobenzo[b][1, 4]diazepin-1-yl]-acetylamino}-4-oxobutyric acid]",–,3800,–,> 30000,–
O=C(O)C[C@H](NC(=O)Cn1c(Cc2ccccc2)ccc(NC(=O)CCc2ccccc2)c1=O)C(=O)CSCc1ccccc1Cl [Compound 125a],–,390,–,–,> 30000
O=C(O)C[C@H](NC(=O)Cn1c(Cc2ccccc2)ccc(NC(=O)CCc2ccccc2)c1=O)C(=O)c1ncc(-c2c(Cl)cccc2Cl)o1 [Compound 128],–,40,–,7500,–
O=C[C@H](CC(=O)O)NC(=O)[C@@H]1CCCN2C(=O)C[C@H](NC(=O)CCc3ccccc3)C(=O)N12 [Compound 132a],–,5000,–,> 30000,–
O=C[C@H](CC(=O)O)NC(=O)[C@@H]1CCCN2CC[C@H](NC(=O)CCc3ccccc3)C(=O)N12 [Compound 133],–,50000,–,> 30000,–
CS(=O)(=O)N[C@H]1CCC(=O)N2CCC[C@@H](C(=O)N[C@H](C=O)CC(=O)O)N2C1=O [Compound 139],–,350,–,2000,–

# Continued, in another order:
Ki (ICE; Example 4 table) [nM],Ki (ICE; Example 6 table) [nM],SMILES,"IC50 ([1]; Homo sapiens, PBMC, Example 4 table) [nM]","IC50 [1, 2] [nM]",IC50 ([1]; Example 6 table) [nM]
11,–,"COc1cccc2nc(C(=O)[C@H](CC(=O)O)NC(=O)[C@H](C)NC(=O)[C@@H](NC(=O)[C@H](Cc3ccc(O)cc3)NC(C)=O)C(C)C)oc12 [Compound 69a, (3S)N-(N-Acetyl-(S)-tyrosinyl-(S)-valinyl-(S)-alaninyl)-3-amino-4-(2-(7-methoxybenzoxazolyl))-4-oxobutanoate]",735,–,–
–,175,"COc1cccc2nc(C(=O)[C@H](CC(=O)O)NC(=O)[C@@H]3C[C@@H](Oc4ccccc4)CN3C(=O)[C@@H](NC(C)=O)C(C)C)oc12 [Compound 86, N-Acetyl-(S)-valinyl-(4-(S)-phenoxy)prolinyl-3(S)-amino-4-(7-methoxybenzoxazol-2-yl)-4-oxo-butanoic acid]",–,4000,–
–,7200,"COc1cccc2nc(C(=O)[C@H](CC(=O)O)NC(=O)[C@@H]3C[C@@H](Oc4ccccc4)CN3C(C)=O)oc12 [Compound 87, N-Acetyl(4-(R)-phenoxy)prolinyl-3(S)-amino-4-(7-methoxybenzoxazol-2-yl)-4-oxo-butanoic acid]",–,35000,–
–,290,"COc1cccc2nc(C(=O)[C@H](CC(=O)O)NC(=O)[C@@H]3CCc4ncc(NC(=O)CCc5ccccc5)c(=O)n43)oc12 [Compound 102b, 4-(7-methyoxy-benzoxazol-2-yl)-4-oxo-(3S)-{[4-oxo-3-(3-phenyl-propionylamino)-4,6,7,8-tetrahydro-pyrrolo[1,2-a]pyrimidine-(6S)-carbonyl]-amino}-butric acid]",–,1750,–
–,400,"COc1cccc2nc(C(=O)[C@H](CC(=O)O)NC(=O)CN3C(=O)[C@@H](NC(=O)CCc4ccccc4)CN(C(=O)CCc4ccccc4)c4ccccc43)oc12 [Compound 108b, 4-(7-Methoxybenzoxazol-2-yl)-4-oxo-3(S)-{2-[2-oxo-5-(3-phenylpropionyl)-3(S)-(3-phenylpropionylamino)-2,3,4,5-tetrahydrobenzo[b][1,4]diazepin-1-yl]-acetylamino}butyric acid]",–,25000,–
–,450,COc1cccc2nc(C(=O)[C@H](CC(=O)O)NC(=O)[C@H](C)n3cccc(NC(=O)CCc4ccccc4)c3=O)oc12 [Compound 126],–,1500,–
–,390,COc1cccc2nc(C(=O)[C@H](CC(=O)O)NC(=O)Cn3c(Cc4ccccc4)ccc(NC(=O)CCc4ccccc4)c3=O)oc12 [Compound 127],–,8000,–
–,590,C[C@@H](C(=O)N[C@@H](CC(=O)O)C(=O)c1ncc(-c2c(Cl)cccc2Cl)o1)n1cccc(NC(=O)CCc2ccccc2)c1=O [Compound 129],–,25000,–
–,90,COc1cccc2nc(C(=O)[C@H](CC(=O)O)NC(=O)[C@@H]3CCCN4C(=O)CC[C@H](NC(=O)CCc5ccccc5)C(=O)N34)oc12 [Compound 135a],–,900,–
–,320,COc1cccc2oc(C(=O)[C@H](CC(=O)O)NC(=O)[C@@H]3CCCN4C(=O)CC[C@H](NC(=O)CCc5ccccc5)C(=O)N34)nc12 [Compound 135b],–,950,–
–,40,O=C(O)C[C@H](NC(=O)[C@@H]1CCCN2C(=O)CC[C@H](NC(=O)CCc3ccccc3)C(=O)N12)C(=O)c1ncc(-c2c(Cl)cccc2Cl)o1 [Compound 137],–,250,–
–,870,O=C[C@H](CC(=O)O)NC(=O)[C@@H]1Cc2ccccc2[C@H]2CCC[C@H](NC(=O)CCc3ccccc3)C(=O)N21 [Compound 140],–,> 30000,–
–,320,CC(C)[C@H](NC(=O)OCc1ccccc1)C(=O)N[C@@H](C)C(=O)N[C@@H](CC(=O)O)C(=O)c1ncc(-c2ccccc2C(F)(F)F)o1 [Compound 144],–,> 20000,–
